Data from ChEMBL document CHEMBL1201862, “PubChem BioAssay data set” (2004).
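Each compound was tested at five concentrations against cells in 96-well plates for 48 hours. GI50 = concentration required for 50% inhibition of growth.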 The source made the active and inactive calls. Rule as the data show it: active = GI50 up to about 1.1 µM and inactive = higher.

What was measured:
Assay in all cases: NCI tumour cell line growth inhibition, 48 h
[1] = system: MDA-MB-231
[2] = system: MDA-MB-435
[3] = system: HL-60
[4] = system: IGROV-1
[5] = system: HT-29
[6] = system: SK-MEL-2
[7] = system: TK-10
[8] = system: OVCAR-8
[9] = system: HCT-116
[10] = system: LOX IMVI
[11] = system: OVCAR-3
[12] = system: KM12
[13] = system: SN12C
[14] = system: CAKI-1
[15] = system: NCI/ADR-RES
[16] = system: HOP-92
[17] = system: HCC 2998
[18] = system: HOP-62
[19] = system: T47D
[20] = system: NCI-H460

CCOc1cccc(-c2cc(O)c3cc4c(cc3n2)OCO4)c1
GI50 [1]: 0.243 µM (active) | GI50 [2]: 0.0164 µM (active) | GI50 [3]: 0.044 µM (active) | GI50 [4]: 0.548 µM (active) | GI50 [5]: 0.221 µM (active) | GI50 [6]: 0.191 µM (active) | GI50 [7]: 0.421 µM (active) | GI50 [8]: 0.265 µM (active) | GI50 [9]: 0.0942 µM (active) | GI50 [10]: 0.233 µM (active) | GI50 [11]: 0.182 µM (active) | GI50 [12]: 0.267 µM (active) | GI50 [13]: 0.191 µM (active) | GI50 [14]: 0.2 µM (active) | GI50 [15]: 0.0828 µM (active) | GI50 [16]: 0.264 µM (active) | GI50 [17]: 0.239 µM (active) | GI50 [18]: 0.621 µM (active) | GI50 [19]: 54.7 µM (inactive) | GI50 [20]: 0.318 µM (active)

C#C/C=C/CC1OC(C(Br)CC)CC(Br)C2CC1O2 (stereo not given)
GI50 [1]: > 100 µM (inactive) | GI50 [2]: 86.5 µM (inactive) | GI50 [3]: 34.1 µM (inactive) | GI50 [4]: 3.25 µM (inactive) | GI50 [5]: 42.6 µM (inactive) | GI50 [6]: > 100 µM (inactive) | GI50 [7]: > 100 µM (inactive) | GI50 [8]: 61.1 µM (inactive) | GI50 [9]: 30.6 µM (inactive) | GI50 [10]: 1.71 µM (inactive) | GI50 [11]: 38.5 µM (inactive) | GI50 [12]: 60.5 µM (inactive) | GI50 [13]: 63.7 µM (inactive) | GI50 [14]: > 100 µM (inactive) | GI50 [15]: 19.1 µM (inactive) | GI50 [16]: 22.8 µM (inactive) | GI50 [17]: 56 µM (inactive) | GI50 [18]: 85.7 µM (inactive) | GI50 [19]: 75.3 µM (inactive) | GI50 [20]: > 100 µM (inactive)

CCOC(=O)c1ccc(NC(=O)O/N=C(/Cl)C(C)C)cc1
GI50 [1]: 19.5 µM (inactive) | GI50 [2]: 16 µM (inactive) | GI50 [3]: 1.23 µM (inactive) | GI50 [4]: 19.4 µM (inactive) | GI50 [5]: 20.7 µM (inactive) | GI50 [6]: 15.1 µM (inactive) | GI50 [7]: 16.4 µM (inactive) | GI50 [8]: 13.9 µM (inactive) | GI50 [9]: 8.05 µM (inactive) | GI50 [10]: 4.95 µM (inactive) | GI50 [11]: 5.28 µM (inactive) | GI50 [12]: 18.3 µM (inactive) | GI50 [13]: 19.9 µM (inactive) | GI50 [14]: 4.63 µM (inactive) | GI50 [15]: 19 µM (inactive) | GI50 [16]: 1.82 µM (inactive) | GI50 [17]: 16.6 µM (inactive) | GI50 [18]: 17 µM (inactive) | GI50 [19]: 2.75 µM (inactive) | GI50 [20]: 19.6 µM (inactive)

O=C(/C=C1\N=C(c2ccccc2)N(c2nc3c(Cl)cc(Cl)cc3s2)C1=O)/C=C/c1ccccc1
GI50 [1]: > 100 µM (inactive) | GI50 [2]: 54.3 µM (inactive) | GI50 [3]: 91 µM (inactive) | GI50 [4]: > 100 µM (inactive) | GI50 [5]: > 100 µM (inactive) | GI50 [6]: > 100 µM (inactive) | GI50 [7]: > 100 µM (inactive) | GI50 [8]: > 100 µM (inactive) | GI50 [9]: 97.5 µM (inactive) | GI50 [10]: > 100 µM (inactive) | GI50 [11]: 75.3 µM (inactive) | GI50 [12]: > 100 µM (inactive) | GI50 [13]: > 100 µM (inactive) | GI50 [14]: > 100 µM (inactive) | GI50 [15]: 83.4 µM (inactive) | GI50 [16]: > 100 µM (inactive) | GI50 [17]: > 100 µM (inactive) | GI50 [18]: > 100 µM (inactive) | GI50 [19]: 24.9 µM (inactive) | GI50 [20]: > 100 µM (inactive)

CN(/N=C(\C(=O)O)c1ccccc1)C1=NCCCCN1
GI50 [1]: > 100 µM (inactive) | GI50 [2]: > 100 µM (inactive) | GI50 [3]: > 100 µM (inactive) | GI50 [4]: 94.6 µM (inactive) | GI50 [5]: > 100 µM (inactive) | GI50 [6]: > 100 µM (inactive) | GI50 [7]: > 100 µM (inactive) | GI50 [8]: > 100 µM (inactive) | GI50 [9]: > 100 µM (inactive) | GI50 [10]: > 100 µM (inactive) | GI50 [11]: > 100 µM (inactive) | GI50 [12]: > 100 µM (inactive) | GI50 [13]: > 100 µM (inactive) | GI50 [14]: > 100 µM (inactive) | GI50 [15]: > 100 µM (inactive) | GI50 [16]: > 100 µM (inactive) | GI50 [17]: > 100 µM (inactive) | GI50 [18]: > 100 µM (inactive) | GI50 [19]: > 100 µM (inactive) | GI50 [20]: > 100 µM (inactive)

CC1(C)CC[C@]2(C(=O)O)CC[C@]3(C)C(=CCC4=C5C[C@H](O)[C@H](O)[C@@](C)(CO)[C@@]5(C)CC[C@]43C)[C@@H]2C1
GI50 [1]: > 100 µM (inactive) | GI50 [2]: 62.1 µM (inactive) | GI50 [3]: 6.05 µM (inactive) | GI50 [4]: 36.9 µM (inactive) | GI50 [5]: 41.5 µM (inactive) | GI50 [6]: 80.5 µM (inactive) | GI50 [7]: 53.6 µM (inactive) | GI50 [8]: 44.3 µM (inactive) | GI50 [9]: 31.3 µM (inactive) | GI50 [10]: 35.7 µM (inactive) | GI50 [11]: > 100 µM (inactive) | GI50 [12]: 38.9 µM (inactive) | GI50 [13]: 39.6 µM (inactive) | GI50 [14]: 28.1 µM (inactive) | GI50 [15]: 43.4 µM (inactive) | GI50 [16]: > 100 µM (inactive) | GI50 [17]: 24 µM (inactive) | GI50 [18]: > 100 µM (inactive) | GI50 [19]: 28.4 µM (inactive) | GI50 [20]: 30.4 µM (inactive)

CCCCON1C[C@H](OC(C)=O)C(OC(C)=O)[C@H](OC(C)=O)C1 (stereo not given in full)
GI50 [1]: > 100 µM (inactive) | GI50 [2]: > 100 µM (inactive) | GI50 [3]: > 100 µM (inactive) | GI50 [4]: > 100 µM (inactive) | GI50 [5]: > 100 µM (inactive) | GI50 [6]: > 100 µM (inactive) | GI50 [7]: > 100 µM (inactive) | GI50 [8]: > 100 µM (inactive) | GI50 [9]: > 100 µM (inactive) | GI50 [10]: > 100 µM (inactive) | GI50 [11]: > 100 µM (inactive) | GI50 [12]: > 100 µM (inactive) | GI50 [13]: > 100 µM (inactive) | GI50 [14]: > 100 µM (inactive) | GI50 [15]: > 100 µM (inactive) | GI50 [16]: > 100 µM (inactive) | GI50 [17]: > 100 µM (inactive) | GI50 [18]: > 100 µM (inactive) | GI50 [19]: > 100 µM (inactive) | GI50 [20]: > 100 µM (inactive)
